Biological target: T1, CCK-A receptor (Rattus norvegicus, UniProt P30551)
T1 construct: from tissue; host or cells: pancreas membranes of Sprague-Dawley rat
T1 sequence (P30551 1-444): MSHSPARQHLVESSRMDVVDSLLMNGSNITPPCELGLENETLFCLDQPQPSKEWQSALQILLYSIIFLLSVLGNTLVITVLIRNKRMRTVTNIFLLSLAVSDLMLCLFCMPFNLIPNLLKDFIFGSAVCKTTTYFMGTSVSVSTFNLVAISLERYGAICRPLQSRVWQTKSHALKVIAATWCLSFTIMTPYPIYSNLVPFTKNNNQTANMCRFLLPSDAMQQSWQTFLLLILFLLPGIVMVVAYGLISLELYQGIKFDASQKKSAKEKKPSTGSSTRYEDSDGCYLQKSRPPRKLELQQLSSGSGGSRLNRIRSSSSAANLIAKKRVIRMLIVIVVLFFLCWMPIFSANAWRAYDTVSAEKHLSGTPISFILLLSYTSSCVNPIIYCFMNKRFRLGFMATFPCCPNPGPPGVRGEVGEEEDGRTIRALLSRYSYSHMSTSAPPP
Assay: CCK-A receptor binding assay (displacement of 3H-L-364,718 from rat pancreas membranes)
Set-up: species or system Sprague-Dawley rat
Settings: 3H-L-364,718 0.2 nM, 37° C., 30 min, read-out: In vitro Binding Data IC50 CCK
Method: Washer Buffer (for use with Brandel Cell Harvester):
30 liters of 50 mM Tris, ph 7.7: Dissolve 181.7 g. Tris base in 4 1. deionized water at room temperature. Adjust pH to 7.7 with 6 N HCl and Q.S. to 30 1.
50 mM Tris-Cl, 5 mM MgCl2, 5 mM dithio-thretiol, 0.14 mg/ml bacitracin, and 2 mg/ml bovine serum albumin.
1 liter of 5X stock buffer:
30.28 g. Tris base per 800 ml D.I. water 5.09 g. MgCl2 6 H2 O, pH to 7.7 at room temperature with 6N HCl and Q.S. 1 liter, store at 4° C.
250 ml working buffer kept on ice:
50 ml of 5X stock buffer 0.1928 g. dithiothretiol (5 mM), 35 mg bacitracin (0.14 mg/ml), and 0.5 g. BSA (2mg/ml).
Unlabeled L-364,718(nonpeptide ligand):
Unlabeled L-364,718 (300 nM final concentration) is used to define nonspecific binding. A 3 mM solution is made in absolute ethanol and stored in a scintillation vial at -70° C. Aliquots are diluted 100-fold in the assay.
A Sprague-Dawley rat is sacrificed by asphyxiation with carbon dioxide and the pancreas removed. The tissue is immersed in cold wash buffer and carefully trimmed of fat, connective tissue, blood vessels, blotted and weighed. The tissue is homogenized in a Sorvall SS-34 centrifuge tube in 50 volumes of wash buffer using a Polytron at setting 7 for 15 seconds. The tissue is centrifuged (Sorvall SS-34) at 19,000 rpm for 10 min. The supernatant is poured off and the pellet resuspended in sufficient buffer to obtain a contraction of 40 mg tissue wet weight/ml. Separate aliquots (2,3ml) are placed in each of 8 centrifuge tubes and centrifuged as before. The supernatants are poured off and the pellets stored at -70° C. Stored pellets are sufficient for the assay of 160 tubes and are stable for 1-2 months.
During the assay the stored membranes are resuspended in 40 ml of assay buffer by scraping the pellet off the wall of the centrifuge tube and washing it into a teflon-glass homogenizer. Membranes are resuspended by 5 passes with the teflon pestle and the membranes stored on ice until ready for use.
Preparation of Compounds:
Compounds are prepared in DMSO (dimethyl sulfoxide) or in assay buffer. The majority of structures active as CCK antagonists generally require DMSO for complete solubility. Approximately 2-3 mg of compound is weighed directly into a 13×100 mm test tube and sufficient DMSO added to obtain a working stock solution at a concentration 100 fold greater than the highest concentration being tested in the assay. A total of 10 μl of each concentration of drug is added into a final volume of 1 ml to yield a 100 fold dilution of the, working stock solution. Control binding tubes ("totals and nonspecifics") are also treated with 10 μl DMSO.
^3 H-L-364,718 is obtained from New England Nuclear (Cat. #971) and is used as supplied. The final assay concentration of ^3 H-L-364,718 in assay buffer should be 0.2 nM in a final assay volume of 1 ml. ^3 H-L-364,718 (0.2 pmol) is added into the assay in a volume of 25 μl (8 nM working stock solution). The required dilution (usually>1000 fold) is obtained by dividing the working stock concentration into the concentration of the specific lot.
Samples are prepared in triplicate and a "total" (buffer addition) and "nonspecific" (300 nM unlabeled L-364,718) set of tubes included in each set of 24 tubes. The remaining 6 sets of triplicates are used either for screening or IC50 determinations. The order of addition is drugs-DMSO, buffer, unlabeled L-364,718, ^3 H-L-364,718, and to start the assay, membranes.
While tubes are incubating a shaking water bath at 37° C. for 30 min Brandel deposit/dispense filters are presoaked in wash buffer. Following the end of the incubation, sets of 24 tubes are rapidly washed with assay buffer as follows. Assay buffer is added to the incubation tubes to the height of the uppermost cross support in the standard Brandel test tube rack and the contents immediately aspirated. This process is repeated twice more, the filter removed, marked and the next set of 24 tubes processed. […]

| IC50 [µM] | SMILES |
| --- | --- |
| 35 | Cc1cccc(NC(=O)N2Cc3[nH]c4ccccc4c3C[C@H]2C(=O)N[C@H](CC(C)C)C(=O)N[C@H](CC(=O)O)C(N)=O)c1 [Example 49] |
| 48 | CC(C)C[C@H](NC(=O)[C@H]1Cc2c([nH]c3ccccc23)CN1C(=O)Nc1ccc(Cl)cc1)C(=O)N[C@@H](CC(=O)O)C(N)=O [Example 55, N-[(3R)-2-(4-chlorophenylcarbamoyl)-1,2,3,4-tetrahydro-9H-pyrido[3,4-b]indole-3-carboxyl]-L-leucyl-L-asartic acid amide] |
| 100 | CC(C)C[C@H](NC(=O)[C@H]1Cc2c([nH]c3ccccc23)CN1C(=O)Nc1cccc2ccccc12)C(=O)N[C@@H](CC(=O)O)C(N)=O [Example 67, N-[(3R)-2-(1-naphthylcarbamoyl)-1,2,3,4-tetrahydro-9H-pyrido[3,4-b]indole-3-carboxyl]-L-leucyl-L-aspartic acid amide] |
| 53 | Cc1cccc(NC(=O)N2Cc3[nH]c4ccccc4c3C[C@H]2C(=O)N[C@H](CC(C)C)C(=O)N[C@@H](CC(=O)O)C(N)=O)c1 [Example 52] |
| 29 | Cc1cccc(NC(=O)N2Cc3[nH]c4ccccc4c3C[C@@H]2C(=O)N(C)[C@@H](CC(C)C)C(=O)N[C@@H](CC(=O)O)C(N)=O)c1 [Example 53, N-[(3R)-2-(3-methylphenylcarbamoyl)-1,2,3,4-tetrahydro-9H-pyrido[3,4-b]indole-3-carboxyl]N'-methyl-L-leucine-L-aspartic acid amide] |
| 4 | Cc1cccc(NC(=O)N2Cc3[nH]c4ccccc4c3C[C@@H]2C(=O)N[C@@H](CC(C)C)C(=O)N[C@@H](Cc2ccccc2)C(N)=O)c1 [Example 42] |
| 65 | Cc1cccc(NC(=O)N2Cc3[nH]c4ccccc4c3C[C@@H]2C(=O)N[C@@H](C)C(=O)N[C@@H](CC(=O)O)C(N)=O)c1 [Example 58] |
| 78 | Cc1cccc(NC(=O)N2Cc3[nH]c4ccccc4c3C[C@@H]2C(=O)N[C@H](CC(C)C)C(=O)N[C@H](CC(=O)O)C(N)=O)c1 [Example 45] |
| 65 | Cc1cc(C)cc(NC(=O)N2Cc3[nH]c4ccccc4c3C[C@@H]2C(=O)N[C@@H](CC(C)C)C(=O)N[C@@H](CC(=O)O)C(N)=O)c1 [Example 60, N-[(3R)-2-(3,5-dimethylphenylcarbamoyl)-1,2,3,4-tetrahydro-9H-pyrido[3,4-b]indole-3-carboxyl]-L-leucyl-L-aspartic acid amide] |
| 100 | Cc1cccc(NC(=O)N2Cc3[nH]c4ccccc4c3C[C@@H]2C(=O)N[C@@H](CC(C)C)C(=O)N[C@H](CC(=O)O)C(N)=O)c1 [Example 51, N-[(3R)-2-(3-methylphenylcarbamoyl)-1,2,3,4-tetrahydro-9H-pyrido[3,4-b]indole-3-carboxyl]-L-leucyl-D-aspartic acid amide] |
| 9.3 | CC(C)C[C@H](NC(=O)[C@H]1Cc2c([nH]c3ccccc23)CN1C(=O)Nc1ccc2ccccc2c1)C(=O)N[C@@H](CC(=O)O)C(N)=O [Example 62] |

Further lines, the compound ahead of its results:

| SMILES | IC50 [µM] |
| --- | --- |
| NC(=O)[C@H](CC(=O)O)NC(=O)[C@H]1Cc2c([nH]c3ccccc23)CN1 [Example 3, N-[(3R)-1,2,3,4-tetrahydro-9H-pyrido[3,4-b]-indole-3-carboxyl]-L-aspartic acid amide] | > 300 |
| CC(C)C[C@H](NC(=O)[C@H]1Cc2c([nH]c3ccccc23)CN1C(=O)Nc1ccc(Cl)c(Cl)c1)C(=O)NCCC(=O)O [Example 27] | 14 |
| O=C(Nc1ccccc1C(=O)N1CCCC1)[C@H]1Cc2c([nH]c3ccccc23)CN1C(=O)c1ccc2ccccc2c1 [Example 20, pyrrolidine-2-N-[(3R)-2-(2-naphthoyl)-1,2,3,4-tetrahydro-9H-pyrido[3,4-b]indole-3-carboxyl]aminobenzamide] | > 30 |
| CCCCN(CCCC)C(=O)c1ccccc1NC(=O)[C@H]1Cc2c([nH]c3ccccc23)CN1C(=O)OCc1ccccc1 [Example 22] | > 10 |
| CC(C)C[C@H](NC(=O)[C@H]1Cc2c([nH]c3ccccc23)CN1C(=O)Nc1ccccc1)C(=O)N[C@@H](CC(=O)O)C(N)=O [Example 14, N-[(3R)-2-phenylcarbamoyl-1,2,3,4-tetrahydro-9H-pyrido[3,4-b]indole-3-carboxyl]-L-leucyl-L-aspartic acid amide] | > 100 |
| CC(C)C[C@H](NC(=O)[C@@H]1Cc2c([nH]c3ccccc23)CN1)C(=O)N[C@@H](CC(=O)O)C(N)=O [Example 2, N-[(3S)-1,2,3,4-tetrahydro-9H-pyrido[3,4-b]indole-3-carboxyl]-L-leucyl-L-aspartic acid amide] | > 300 |
| CCOC(=O)c1ccccc1NC(=O)[C@@H]1Cc2c([nH]c3ccccc23)CN1C(=O)OCc1ccccc1 [Example 23, ethyl 2-N-[(3S)-2-carbobenzoxy-1,2,3,4-tetrahydro-9H-pyrido[3,4-b]indole-3-carboxyl]aminobenzoate] | > 10 |
| NC(=O)[C@H](CC(=O)O)NC(=O)[C@@H]1Cc2c([nH]c3ccccc23)CN1 [Example 4, N-[(3S)-1,2,3,4-tetrahydro-9H-pyrido[3,4-b]indole-3-carboxyl]-L-aspartic amide] | > 300 |
| O=C(NCC(c1ccccc1)c1ccccc1)[C@H]1Cc2c([nH]c3ccccc23)CN1 [Example 5, (3R)-3-(2,2'-diphenyl)ethylcarbamoyl-1,2,3,4-tetrahydro-9H-pyrido[3,4-b]indole] | 50 to 60 |
| CC(C)C[C@H](NC(=O)[C@H]1Cc2c([nH]c3ccccc23)CN1C(=O)c1ccccc1)C(=O)N[C@@H](CC(=O)O)C(N)=O [Example 9, N-[(3R)-2-benzoyl-1,2,3,4-tetrahydro-9H-pyrido[3,4-b]indole-3-carboxyl]-L-leucyl-L-aspartic acid amide] | 230 |
| CC(C)C[C@H](NC(=O)[C@H]1Cc2c([nH]c3ccccc23)CN1)C(=O)N[C@@H](CC(=O)O)C(N)=O [Example 1, N-[(3R)-1,2,3,4-tetrahydro-9H-pyrido[3,4-b]indole-3-carboxyl]-L-leucyl-L-aspartic acid amide] | > 300 |
| Cc1cccc(NC(=O)N2Cc3[nH]c4ccccc4c3C[C@H]2C(=O)N[C@@H](CC(C)C)C(=O)N[C@@H](CC(=O)O)C(N)=O)c1 [Example 12, N-[(3S)-2-(3-methylphenylcarbamoyl)-1,2,3,4-tetrahydro-9H-pyrido[3,4-b]indole-3-carboxyl]-L-leucyl-L-aspartic acid amide] | 170 |
| CC[C@H](C)[C@H](NC(=O)[C@H]1Cc2c([nH]c3ccccc23)CN1C(=O)Nc1ccc(Cl)c(Cl)c1)C(=O)N[C@@H](CC(=O)O)C(N)=O [Example 24, N-[(3R)-2-(3,4-dichlorophenylcarbamoyl)-1,2,3,4-tetrahydro-9H-pyrido[3,4-b]indol-3-yl]carbonyl-L-isoleucyl-L-aspartic acid amide] | 36 |

Reference: patent publication US5162336A, “Tetrahydro-pyrido-indoles as cholecystokinin and gastrin antagonists” (Rhone-Poulenc Rorer Pharmaceuticals Inc., priority 1990, dated 1992)
